Test results: PubChem BioAssay (NCI)
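Protocol summary: plate cells (96-well), add compound at 5 concentrations, incubate 48 h, interpolate endpoints linearly. At the GI50, growth is halved. Definition used: TGI = concentration required for complete inhibition of growth.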

Key:
Assay in all cases: inhibition of tumour cell growth, NCI panel, 48 h
MDA-MB-231 breast = tested on: MDA-MB-231 breast
MOLT-4 leukemia = tested on: MOLT-4 leukemia
RPMI-8226 leukemia = tested on: RPMI-8226 leukemia
HOP-92 NSCLC = tested on: HOP-92 NSCLC
OVCAR-3 ovarian = tested on: OVCAR-3 ovarian
DU-145 prostate = tested on: DU-145 prostate
BT-549 breast = tested on: BT-549 breast
HS 578T breast = tested on: HS 578T breast
PC-3 prostate = tested on: PC-3 prostate
SN12C renal = tested on: SN12C renal

`N#CSCC1CC(O)(c2ccccc2)C(c2ccccc2)C(c2ccc(F)cc2)O1` (stereo not drawn) showed a GI50 (MDA-MB-231 breast) of 2.53 µM, a TGI (MDA-MB-231 breast) of 8.62 µM and a GI50 (MOLT-4 leukemia) of 0.676 µM. For the same compound, the TGI (MOLT-4 leukemia) was 4.51 µM, the GI50 (RPMI-8226 leukemia) was 1.67 µM and the TGI (RPMI-8226 leukemia) was 7.03 µM. For the same compound, the GI50 (HOP-92 NSCLC) was 2.13 µM, the TGI (HOP-92 NSCLC) was 7.88 µM and the GI50 (OVCAR-3 ovarian) was 1.52 µM. It also gave a TGI (OVCAR-3 ovarian) of 2.99 µM, a GI50 (DU-145 prostate) of 2.16 µM and a TGI (DU-145 prostate) of 5 µM. It also gave a GI50 (BT-549 breast) of 2.32 µM, a TGI (BT-549 breast) of 5.39 µM and a GI50 (HS 578T breast) of 3.18 µM. The TGI (HS 578T breast) was 12.9 µM, the GI50 (PC-3 prostate) was 2.14 µM and the TGI (PC-3 prostate) was 11.3 µM. The GI50 (SN12C renal) was 2.05 µM and the TGI (SN12C renal) was 5.27 µM.

With `O=C(Nc1ccc2oc(=O)c(C(=O)O)cc2c1)Oc1ccccc1` the TGI (MDA-MB-231 breast) was > 100 µM, the TGI (MOLT-4 leukemia) was > 100 µM and the TGI (RPMI-8226 leukemia) was > 100 µM. The TGI (HOP-92 NSCLC) was > 100 µM, the TGI (OVCAR-3 ovarian) was > 100 µM and the TGI (DU-145 prostate) was > 100 µM. For the same compound, the TGI (BT-549 breast) was > 100 µM, the TGI (HS 578T breast) was > 100 µM and the TGI (PC-3 prostate) was > 100 µM. For the same compound, the TGI (SN12C renal) was > 100 µM.

With `C=C1C(=O)O[C@@H]2C[C@@H](C)[C@@H]3[C@@H](OC4OC(COC(C)=O)C(O)C(O)C4O)CC(=O)[C@@]3(C)C[C@H]12` (stereo partly drawn) the TGI (MDA-MB-231 breast) was 8.92 µM, the TGI (MOLT-4 leukemia) was 7.4 µM and the TGI (RPMI-8226 leukemia) was 8.53 µM. For the same compound, the TGI (HOP-92 NSCLC) was 2.15 µM, the TGI (OVCAR-3 ovarian) was 3.46 µM and the TGI (DU-145 prostate) was 21.5 µM. For the same compound, the TGI (BT-549 breast) was 3.13 µM, the TGI (HS 578T breast) was > 100 µM and the TGI (PC-3 prostate) was 23.7 µM. It also gave a TGI (SN12C renal) of 3.51 µM.

`Cn1c(=O)c2[nH]c(COCc3nc4c([nH]3)c(=O)n(C)c(=O)n4C)nc2n(C)c1=O` was tested, and the TGI (MDA-MB-231 breast) was > 100 µM, the TGI (MOLT-4 leukemia) was > 100 µM and the TGI (RPMI-8226 leukemia) was > 100 µM. For the same compound, the TGI (HOP-92 NSCLC) was > 100 µM, the TGI (OVCAR-3 ovarian) was > 100 µM and the TGI (DU-145 prostate) was > 100 µM. For the same compound, the TGI (BT-549 breast) was > 100 µM, the TGI (HS 578T breast) was > 100 µM and the TGI (PC-3 prostate) was > 100 µM. The TGI (SN12C renal) was > 100 µM.

Work on `Cn1c2ccccc2c2nnc(N/N=C/c3ccccn3)nc21` yielded a GI50 (MDA-MB-231 breast) of 0.478 µM, a TGI (MDA-MB-231 breast) of 38.1 µM and a GI50 (MOLT-4 leukemia) of 0.271 µM. It also gave a GI50 (RPMI-8226 leukemia) of 0.367 µM, a TGI (RPMI-8226 leukemia) of 16.6 µM and a GI50 (HOP-92 NSCLC) of 0.413 µM. For the same compound, the TGI (HOP-92 NSCLC) was > 59.1 µM, the GI50 (OVCAR-3 ovarian) was 0.489 µM and the TGI (OVCAR-3 ovarian) was > 33 µM. The GI50 (DU-145 prostate) was 0.377 µM, the TGI (DU-145 prostate) was > 27.3 µM and the GI50 (BT-549 breast) was 0.452 µM. The TGI (BT-549 breast) was > 38.9 µM, the GI50 (HS 578T breast) was 2.06 µM and the TGI (HS 578T breast) was 82.9 µM. The GI50 (PC-3 prostate) was 1.44 µM, the TGI (PC-3 prostate) was > 100 µM and the GI50 (SN12C renal) was 0.286 µM.

`Cc1nc(NC(=S)Nc2ccc(F)cc2)sc1C(=O)NNC(=S)Nc1ccc(F)cc1` gave a GI50 (MDA-MB-231 breast) of 10.4 µM, a TGI (MDA-MB-231 breast) of 25.1 µM and a GI50 (MOLT-4 leukemia) of 3.33 µM. For the same compound, the TGI (MOLT-4 leukemia) was > 100 µM, the GI50 (RPMI-8226 leukemia) was 2.2 µM and the TGI (RPMI-8226 leukemia) was 6.9 µM. It also gave a GI50 (HOP-92 NSCLC) of 1.49 µM, a TGI (HOP-92 NSCLC) of 7.25 µM and a GI50 (OVCAR-3 ovarian) of 2.55 µM. The TGI (OVCAR-3 ovarian) was 10.1 µM, the GI50 (DU-145 prostate) was 5.53 µM and the TGI (DU-145 prostate) was 22.3 µM. For the same compound, the GI50 (BT-549 breast) was 14.9 µM, the TGI (BT-549 breast) was 45.2 µM and the GI50 (HS 578T breast) was 11.4 µM. It also gave a TGI (HS 578T breast) of 38 µM, a GI50 (PC-3 prostate) of 4.38 µM and a TGI (PC-3 prostate) of 80.7 µM. It also gave a GI50 (SN12C renal) of 10.2 µM and a TGI (SN12C renal) of 32.1 µM.

For `CC1(C)N=C(N)N=C(N)N1c1cccc(CCCCc2ccc(S(=O)(=O)F)cc2Cl)c1`, the GI50 (MDA-MB-231 breast) was 10.9 µM, the TGI (MDA-MB-231 breast) was 43.1 µM and the GI50 (MOLT-4 leukemia) was 7.42 µM. For the same compound, the TGI (MOLT-4 leukemia) was > 65.3 µM, the GI50 (RPMI-8226 leukemia) was 10.8 µM and the TGI (RPMI-8226 leukemia) was 41.9 µM. It also gave a GI50 (HOP-92 NSCLC) of 14 µM, a TGI (HOP-92 NSCLC) of 47.8 µM and a GI50 (OVCAR-3 ovarian) of 5.37 µM. The TGI (OVCAR-3 ovarian) was 34.1 µM, the GI50 (DU-145 prostate) was 4.06 µM and the TGI (DU-145 prostate) was > 59.8 µM. For the same compound, the GI50 (BT-549 breast) was 4.31 µM, the TGI (BT-549 breast) was > 46.3 µM and the GI50 (HS 578T breast) was 43.2 µM. For the same compound, the TGI (HS 578T breast) was > 100 µM, the GI50 (PC-3 prostate) was 0.581 µM and the TGI (PC-3 prostate) was > 100 µM. The GI50 (SN12C renal) was 0.834 µM and the TGI (SN12C renal) was 22.5 µM.

`NC(=O)C1=C(c2ccccc2)c2ccccc2C1=O` gave a TGI (MDA-MB-231 breast) of 32.4 µM, a TGI (MOLT-4 leukemia) of 14.9 µM and a TGI (RPMI-8226 leukemia) of 72.4 µM. The TGI (HOP-92 NSCLC) was 35.3 µM, the TGI (OVCAR-3 ovarian) was 24.6 µM and the TGI (DU-145 prostate) was 31.3 µM. The TGI (BT-549 breast) was 30.9 µM, the TGI (HS 578T breast) was 64.2 µM and the TGI (PC-3 prostate) was 32.7 µM. The TGI (SN12C renal) was 33.8 µM.

Work on `c1ccc2[nH]c(-c3ccc(OCCCCCOc4ccc(-c5nc6ccccc6[nH]5)cc4)cc3)nc2c1` yielded a GI50 (MDA-MB-231 breast) of 2.07 µM, a TGI (MDA-MB-231 breast) of 7.08 µM and a GI50 (MOLT-4 leukemia) of 1.07 µM. It also gave a TGI (MOLT-4 leukemia) of 3.48 µM, a GI50 (RPMI-8226 leukemia) of 2.21 µM and a TGI (RPMI-8226 leukemia) of 6.51 µM. The GI50 (HOP-92 NSCLC) was 3.84 µM, the TGI (HOP-92 NSCLC) was 10.1 µM and the GI50 (OVCAR-3 ovarian) was 0.828 µM. The TGI (OVCAR-3 ovarian) was 1.84 µM, the GI50 (DU-145 prostate) was 0.639 µM and the TGI (DU-145 prostate) was 3.41 µM. The GI50 (BT-549 breast) was 2.33 µM, the TGI (BT-549 breast) was 5.58 µM and the GI50 (HS 578T breast) was 1.3 µM. For the same compound, the TGI (HS 578T breast) was 4.41 µM, the GI50 (PC-3 prostate) was 2.76 µM and the TGI (PC-3 prostate) was 8.05 µM. It also gave a GI50 (SN12C renal) of 3.27 µM and a TGI (SN12C renal) of 10.2 µM.

`COc1ccc(C2=C(c3cn(C)c4ccccc34)C(=O)NC2=O)cc1OC` was tested, and the GI50 (MDA-MB-231 breast) was 10.7 µM, the TGI (MDA-MB-231 breast) was > 25 µM and the GI50 (MOLT-4 leukemia) was 8.84 µM. For the same compound, the TGI (MOLT-4 leukemia) was > 25 µM, the GI50 (RPMI-8226 leukemia) was 9.61 µM and the TGI (RPMI-8226 leukemia) was > 25 µM. The GI50 (HOP-92 NSCLC) was > 12.4 µM, the TGI (HOP-92 NSCLC) was > 25 µM and the GI50 (OVCAR-3 ovarian) was 7.57 µM. The TGI (OVCAR-3 ovarian) was > 25 µM, the GI50 (DU-145 prostate) was > 19.4 µM and the TGI (DU-145 prostate) was > 25 µM. For the same compound, the GI50 (BT-549 breast) was 8.02 µM, the TGI (BT-549 breast) was > 25 µM and the GI50 (HS 578T breast) was 3.85 µM. The TGI (HS 578T breast) was > 20.6 µM, the GI50 (PC-3 prostate) was 7.29 µM and the TGI (PC-3 prostate) was > 25 µM. For the same compound, the GI50 (SN12C renal) was 8.91 µM and the TGI (SN12C renal) was > 25 µM.

In the case of `CN(/N=N/c1nc(OCc2ccccc2)c2[nH]cnc2n1)C(=O)N(C)/N=N/c1nc(OCc2ccccc2)c2[nH]cnc2n1`, the GI50 (MDA-MB-231 breast) was 41.2 µM, the TGI (MDA-MB-231 breast) was > 100 µM and the GI50 (MOLT-4 leukemia) was 53.1 µM. For the same compound, the TGI (MOLT-4 leukemia) was > 100 µM, the GI50 (RPMI-8226 leukemia) was 38.1 µM and the TGI (RPMI-8226 leukemia) was > 100 µM. For the same compound, the GI50 (HOP-92 NSCLC) was 29.9 µM, the TGI (HOP-92 NSCLC) was > 100 µM and the GI50 (OVCAR-3 ovarian) was 34.8 µM. The TGI (OVCAR-3 ovarian) was > 100 µM, the GI50 (DU-145 prostate) was 38.9 µM and the TGI (DU-145 prostate) was > 100 µM. The GI50 (BT-549 breast) was 36.6 µM, the TGI (BT-549 breast) was > 100 µM and the GI50 (HS 578T breast) was 25.5 µM. For the same compound, the TGI (HS 578T breast) was 85.3 µM, the GI50 (PC-3 prostate) was 40.5 µM and the TGI (PC-3 prostate) was > 100 µM. For the same compound, the GI50 (SN12C renal) was 56.6 µM and the TGI (SN12C renal) was > 100 µM.
